Source: ChEMBL document CHEMBL4828769, “Discovery of AS-0141, a Potent and Selective Inhibitor of CDC7 Kinase for the Treatment of Solid Cancers” (J Med Chem, 2021)
pIC50: −log10 of the molar value.

Key:
[1] = Inhibition of human CDC7/ASK using FITC-labelled MCM2 substrate in presence of 1 mM of ATP
[2] = Metabolic stability in human liver microsomes assessed as parent compound remaining after 30 mins; format: ADME, Microsome; settings: microsomes, 0.5 h
[3] = Inhibition of human CDC7/ASK using FITC-labelled MCM2 substrate preincubated for 30 mins followed by substrate addition and measured after 5 hrs in presence of 1 mM of ATP
[4] = Inhibition of human CDC7/ASK using FITC-labelled MCM2 substrate in presence of 5 uM of ATP
[5] = Metabolic stability in mouse liver microsomes assessed as parent compound remaining after 30 mins; format: ADME, Microsome; settings: microsomes, 0.5 h
COLO 205 = assay: Induction of cell cycle arrest in human COLO205 cells assessed as accumulation of cells at sub-G1 phase at 1 uM incubated for 48 hrs by propidium iodide staining based flow cytometry analysis; format: functional
[6] = molecular target: Cell division cycle 7-related protein kinase (Homo sapiens, UniProt O00311); assay: Inhibition of CDC7 in human COLO205 cells assessed as reduction in MCM2 phosphorylation at S53 residue at 0.1 uM incubated for 48 hrs by Western blot analysis relative to control; format: cell-based; settings: COLO 205
Chain of Cell division cycle 7-related protein kinase (O00311 whole entry, looked up): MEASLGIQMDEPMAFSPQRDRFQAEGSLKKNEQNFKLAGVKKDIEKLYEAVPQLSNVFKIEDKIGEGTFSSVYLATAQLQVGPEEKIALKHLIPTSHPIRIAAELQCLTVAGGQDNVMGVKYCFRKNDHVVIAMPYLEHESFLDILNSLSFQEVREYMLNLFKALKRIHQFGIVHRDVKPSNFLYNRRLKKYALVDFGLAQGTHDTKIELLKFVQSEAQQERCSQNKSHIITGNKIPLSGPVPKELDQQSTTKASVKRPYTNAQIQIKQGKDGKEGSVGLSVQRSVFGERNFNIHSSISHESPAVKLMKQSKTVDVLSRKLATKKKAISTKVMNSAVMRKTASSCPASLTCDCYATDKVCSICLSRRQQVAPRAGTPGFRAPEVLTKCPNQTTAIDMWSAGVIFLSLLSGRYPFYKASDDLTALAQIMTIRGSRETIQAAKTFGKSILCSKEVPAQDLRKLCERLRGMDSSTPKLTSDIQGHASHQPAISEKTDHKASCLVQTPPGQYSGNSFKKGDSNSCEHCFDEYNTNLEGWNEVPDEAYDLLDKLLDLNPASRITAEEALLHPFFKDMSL

SMILES | pIC50 [1] | Stability [2] | pIC50 [3] | pIC50 [4] | Stability [5] | Activity (COLO 205) | inhibition [6]
CCOC(=O)C1=C(N2CCCCCC2)O/C(=C\c2c[nH]c3ncccc23)C1=O | 6.40 | Unstable | 8.41 | 8.25 | Unstable | – | –
CCOC(=O)C1=C(N2CCCCC2)O/C(=C\c2c[nH]c3ncccc23)C1=O | 6.07 | – | – | 7.80 | – | – | –
CCOC(=O)C1=C(NN2CCN(CCO)CC2)O/C(=C\c2c[nH]c3ncccc23)C1=O | 6.27 | – | 8.89 | 8.00 | – | 0% | 18%
CCOC(=O)C1=C(NCCOC)O/C(=C\c2c[nH]c3ncccc23)C1=O | – | – | < 5.00 | 7.08 | – | – | –
CCOC(=O)C1=C(Nc2ccccc2Cl)O/C(=C\c2c[nH]c3ncccc23)C1=O | 6.56 | – | 9.22 | 8.62 | – | – | –
CCOC(=O)C1=C(N2CCC(O)CC2)O/C(=C\c2c[nH]c3ncccc23)C1=O | 5.90 | – | 7.64 | 7.85 | – | – | –
CCOC(=O)C1=C(NN2CCN(C)CC2)O/C(=C\c2c[nH]c3ncccc23)C1=O | 5.97 | – | 8.35 | 7.92 | – | 15.9% | 63%
CCOC(=O)C1=C(N2CCOCC2)O/C(=C\c2c[nH]c3ncccc23)C1=O | 5.57 | – | – | 7.46 | – | – | –
CCOC(=O)C1=C(NN2CCCCCC2)O/C(=C\c2c[nH]c3ncccc23)C1=O | 6.35 | – | 9.05 | 8.30 | – | 23.2% | 100%
CCOC(=O)C1=C(NN(CC)CC)O/C(=C\c2c[nH]c3ncccc23)C1=O | 6.40 | – | 8.62 | 8.16 | – | 14.5% | 67%
CCOC(=O)C1=C(NC2CCN(C)CC2)O/C(=C\c2c[nH]c3ncccc23)C1=O | – | – | – | 7.03 | – | – | –
CCOC(=O)C1=C(NN2CCCC2)O/C(=C\c2c[nH]c3ncccc23)C1=O | 6.16 | – | 8.96 | 8.16 | – | 17.4% | 100%
CCOC(=O)C1=C(NCCN(C)C)O/C(=C\c2c[nH]c3ncccc23)C1=O | – | – | – | 6.27 | – | – | –
CCOC(=O)C1=C(N2CCC(CO)CC2)O/C(=C\c2c[nH]c3ncccc23)C1=O | 5.87 | – | 8.00 | 7.82 | – | – | –
CCOC(=O)C1=C(N2CCCN(C)CC2)O/C(=C\c2c[nH]c3ncccc23)C1=O | < 5.00 | – | < 5.00 | 6.88 | – | – | –
CCOC(=O)C1=C(NN2CCOCC2)O/C(=C\c2c[nH]c3ncccc23)C1=O | 6.44 | – | 9.82 | 8.54 | – | 46.4% | 70%
CCOC(=O)C1=C(N2CCN(CCO)CC2)O/C(=C\c2c[nH]c3ncccc23)C1=O | 5.22 | – | – | 7.14 | – | – | –
CCOC(=O)C1=C(NN(C)C2CCCCC2)O/C(=C\c2c[nH]c3ncccc23)C1=O | 6.39 | – | 8.70 | 8.23 | – | 33% | 35%
CCNC1=C(C(=O)OCC)C(=O)/C(=C/c2c[nH]c3ncccc23)O1 | – | – | – | 7.49 | – | – | –
CCOC(=O)C1=C(N(C)C2CCCCC2)O/C(=C\c2c[nH]c3ncccc23)C1=O | 6.02 | – | 7.64 | 8.02 | – | – | –
CCOC(=O)C1=C(NC(C)C)O/C(=C\c2c[nH]c3ncccc23)C1=O | – | – | – | 7.68 | – | – | –
CCOC(=O)C1=C(NC2CCCCC2)O/C(=C\c2c[nH]c3ncccc23)C1=O | 6.18 | – | 7.28 | 8.11 | – | – | –
CCOC(=O)C1=C(NC2CCCC2)O/C(=C\c2c[nH]c3ncccc23)C1=O | 5.83 | – | – | 7.89 | – | – | –
